Reference: patent US20250213536A1, “DETECTING AND TREATING GROWTH HORMONE DEFICIENCY” (Lumos Pharma, Inc., priority 2015, published 2025)
“Also recorded” adds a separate entry of the source. Counter-ions that a name gives are not always drawn.

Key:
GHD children [1] = assay: Phase IIb therapeutic study in pediatric GH deficiency: height velocity after 6 months of treatment; assay type: in vivo, human; conditions: for Delta Height Velocity, Biological Age (BA) / Delta Height Velocity, Chronological Age (CA): general population of GHD children; for height velocity in the LOW group compared with the EQUAL group, in words: 6 months of treatment; for growth (height velocity) response, GH compared with MK-0677, in words: 6 months
Description: In the Phase IIb study, 24 children were treated with 0.8 mg/kg/d MK-0677. […] This can also be expressed as a height velocity standard deviation (SD) (or standard deviations-also SD) at baseline of 0.4±2.1 and 3.5±2.0 at 6 months. […] Change in height velocity SD for chronological age was 0.4±2.1 for placebo and 3.5±2.0 for treatment with MK-0677 after 6 months at a dose of 0.8 mg/kg/d. Twenty of the 22 placebo-treated children were then treated with standard Growth Hormone (GH) treatment (daily subcutaneous injection of rhGH, 0.043 mg/kg/day). […] Therapeutic Study in Pediatric GH Deficiency: A Phase IIb study was run to determine whether or not MK-0677 could be used to treat pediatric GHD. MK-0677 was compared against placebo and rhGH injections according to the following protocol. Bone age was determined using the atlas matching method of Greulich and Pyle. Protocol: 6 months of once-daily oral sucrose formulation solution. Tables 6A-6E show the height velocity for EQUAL growth potential children treated with either 0.8 mg/kg/daily po or 0.4 mg/kg/daily po MK-0677 compared with rhGH (0.3 mg/kg/week; ˜42 μg/kg/daily sc injection). […] Values are mean (SD). Tables 7A-7C compare the height velocity for low growth potential patients (LOW) with equivalent growth potential compared to rhGH (EQUAL). Values are mean (SD).

[2] = test system: hypothalamic-pituitary GH axis; assay: MK-0677 challenge test: peak serum GH after a single oral dose of MK-0677; assay type: in vivo, human; conditions: for Peak GH response to MK-0677: baseline; for Peak GH to MK-0677: single dose 0.8 mg/kg
Description: Testing for GH secretion with MK-0677: A single, oral dose of MK-0677 is administered to a patient and sufficient blood samples are taken prior to and after administration (e.g., 15 minutes before and t=0, 30, 60, 90, and 120 minutes after administration) to measure the peak GH secretion. An example of the amount of MK-0677 administered is 0.8 mg/kg. In an aspect, the patient being tested will have fasted overnight (abstinence from all food and drink but water). [table] Subjects will report to the clinic in the morning after an overnight fast from all food and drink except water. A catheter will be inserted approximately 1 hour before the administration of MK 0677. Two baseline measures will be taken a t=−15 minutes and t=0 minutes (time at which subject is administered the dose). Subjects will be given a dose of 0.8 mg/kg MK-0677 as 2-mg tablets to be taken orally. Blood samples will be taken subsequently at t=30, 60, 90, 120 minutes. In addition at t=−15 and 120 minutes, samples will be drawn for a serum chemistry panel. At the conclusion of the test, the catheter will be removed. All blood samples will be analyzed for GH, prolactin, and cortisol by a core clinical laboratory.

GHD children [3] = conditions: cited from earlier work
[4] = Adequate GH Secretion Potential, MK-0677 0.8 mg/kg/d (N = 15)
[5] = Low GH Secretion Potential, MK-0677 0.8 mg/kg/d (N = 9)
[6] = Adequate GH Secretion Potential, GH 0.3 mg/kg/wk (N = 15)
[7] = GH after placebo 0.3 mg/kg/week (n = 20)
[8] = Low GH Secretion Potential, GH 0.3 mg/kg/wk (N = 5)

In the case of `CC(C)(N)C(=O)N[C@H](COCc1ccccc1)C(=O)N1CCC2(CC1)CN(S(C)(=O)=O)c1ccccc12` [MK-0677, Ibutamoren mesylate], the “Delta Height Velocity, Biological Age (BA)” value (GHD children [1]; 0.4 mg/kg/d (n = 22)) is reported as 2.6 (1.5) standard deviations, the “Delta Height Velocity, Chronological Age (CA)” value (GHD children [1]; 0.4 mg/kg/d (n = 22)) is reported as 2.6 (1.7) standard deviations and the “Delta Height Velocity, Biological Age (BA)” value (GHD children [1]; 0.8 mg/kg/d (n = 22)) is reported as 3.3 (1.8) standard deviations. The “Delta Height Velocity, Chronological Age (CA)” value (GHD children [1]; 0.8 mg/kg/d (n = 22)) was 3.5 (2.0) standard deviations, the “height velocity in the LOW group compared with the EQUAL group, in words” value (GHD children [1]) was “lower than with the EQUAL group” and the Delta height velocity (GHD children [1]; [4]) was 3.4 (1.4) cm/year. The “Height velocity SD for BA” value (GHD children [1]; [4]) was 3.8 (1.3), the “Height velocity SD for CA” value (GHD children [1]; [4]) was 3.8 (1.7) and the “Height Velocity” value (GHD children [1]; EQUAL (N = 12), 6-Month MK 0.4 mg/kg/day) was 6.2 (1.8). The “Height Velocity” value (GHD children [1]; EQUAL (N = 14), 6-Month MK 0.8 mg/kg/day) was 7.6 (1.3), the “growth (height velocity) response, GH compared with MK-0677, in words” value (GHD children [1]; EQUAL patient group (peak GH ≥5 μg/L to MK-0677 and baseline IGF-I >30 μg/L)) was “equal to GH treatment; also recorded: does not differ significantly from that to GH; also recorded: equivalent growth response” and the “Height Velocity” value (GHD children [1]; LOW (N = 10), 6-Month MK 0.4 mg/kg/day) was 5.8 (2.1). The “Height Velocity” value (GHD children [1]; LOW (N = 10), 6-Month MK 0.8 mg/kg/day) was 5.8 (2.2), the “Height Velocity” value (GHD children [1]; LOW and EQUAL combined, 6-Month MK 0.4 mg/kg/day (N = 22), mean (SD)) was 6.0 (1.9) and the “Height Velocity” value (GHD children [1]; LOW and EQUAL combined, 6-Month MK 0.8 mg/kg/day (N = 24), mean (SD)) was 6.9 (1.9). For the same compound, the “growth (height velocity) response, GH compared with MK-0677, in words” value (GHD children [1]; LOW growth potential / severely GH deficient patients) was “inadequate growth response; also recorded: less responsive”, the Delta height velocity (GHD children [1]; [5]) was 2.3 (2.0) cm/year and the “Height velocity SD for BA” value (GHD children [1]; [5]) was 2.6 (2.4). The “Height velocity SD for CA” value (GHD children [1]; [5]) was 2.9 (2.5), the Height Velocity (GHD children [1]; equivalent growth potential, after 6 months of MK-677 0.8 mg/kg (N = 14)) was 7.6 (1.3) cm/year and the Height Velocity (GHD children [1]; low growth potential, after 6 months of MK-677 0.8 mg/kg (N = 10)) was 5.8 (2.2) cm/year. The “growth response, GH compared with MK-0677, in words” value (GHD children [1]; patients with adequate GH secretion potential (Table 4B)) was “comparable with GH and was not statistically different”, the “Peak GH response to MK-0677” value ([2]; Adequate GH Secretion Potential, group later given Placebo followed by rhGH (N = 15)) was 39.2 (28.8) μg/L and the “Peak GH response to MK-0677” value ([2]; Adequate GH Secretion Potential, group later treated with MK-0677 0.8 mg/kg/d (N = 15)) was 41.3 (27.8) μg/L. The “Peak GH response to MK-0677” value ([2]; Low GH Secretion Potential, group later given Placebo followed by rhGH (N = 5)) was 2.9 (0.6) μg/L, the “Peak GH response to MK-0677” value ([2]; Low GH Secretion Potential, group later treated with MK-0677 0.8 mg/kg/d (N = 9)) was 3.2 (1.3) μg/L and the “Peak GH response to MK-0677” value ([2]; equivalent growth potential, Placebo group later switched to rhGH (N = 13)) was 51.2 (25.3) μg/L. The “Peak GH response to MK-0677” value ([2]; equivalent growth potential, group later treated with MK-0677 0.8 mg/kg (N = 14)) was 43.7 (27.1) μg/L, the “Peak GH response to MK-0677” value ([2]; low growth potential, Placebo group later switched to rhGH (N = 9)) was 6.7 (5.9) μg/L and the “Peak GH response to MK-0677” value ([2]; low growth potential, group later treated with MK-0677 0.8 mg/kg (N = 10)) was 3.6 (1.7) μg/L. The “Peak GH to MK-0677” value ([2]; All subjects (73)) was 32 ± 3.5 µg/L, the “Peak GH to MK-0677” value ([2]; High Potential (≥5 μg/L), 49 subjects) was 43 ± 30 µg/L and the “Peak GH to MK-0677” value ([2]; Low Potential (≤5 μg/L), 24 subjects) was 3.0 ± 1.0 µg/L. For the same compound, the “growth rate at 6 months” value (GHD children [3]; MK-0677 0.8 mg/kg/d, 24 children, Merck Phase IIb study) was 6.8±2.0 cm/y, the “Change in height velocity SD for chronological age” value (GHD children [3]; MK-0677 0.8 mg/kg/d, after 6 months) was 3.5±2.0 and the “change in growth rate” value (GHD children [3]; MK-0677 0.8 mg/kg/d, baseline to 6 months, 24 children) was 3.4±2.1 cm/y.

In the case of “rhGH: recombinant human growth hormone given as daily subcutaneous injection, standard GH therapy”, the “height velocity in the LOW group compared with the EQUAL group, in words” value (GHD children [1]) is reported as “greater in the LOW group than in the EQUAL group”, the Delta height velocity (GHD children [1]; [6]) is reported as 4.9 (2.9) cm/year and the “Height velocity SD for BA” value (GHD children [1]; [6]) is reported as 4.9 (2.6). The “Height velocity SD for CA” value (GHD children [1]; [6]) was 5.1 (2.8), the “Height Velocity” value (GHD children [1]; EQUAL (N = 11), 6-Month rhGH) was 8.8 (1.8) and the “Delta Height Velocity, Biological Age (BA)” value (GHD children [1]; [7]) was 6.2 (3.4) standard deviations. For the same compound, the “Delta Height Velocity, Chronological Age (CA)” value (GHD children [1]; [7]) was 7.6 (5.6) standard deviations, the “Height Velocity” value (GHD children [1]; LOW (N = 9), 6-Month rhGH) was 14.0 (4.1) and the “Height Velocity” value (GHD children [1]; LOW and EQUAL combined, 6-Month GH 0.3 mg/kg/week (N = 20), mean (SD)) was 11.1 (4.0). The “Height Velocity” value (GHD children [1]; LOW and EQUAL combined, GH (12-Month): 6 months rhGH after 6 months placebo (N = 20), paired T-test table) was 11.14 (3.96), the “growth (height velocity) response, GH compared with MK-0677, in words” value (GHD children [1]; LOW growth potential / severely GH deficient patients, listed as GH) was “extremely sensitive to GH; also recorded: increase in height velocity” and the Delta height velocity (GHD children [1]; [8]) was 12.3 (4.4) cm/year. For the same compound, the “Height velocity SD for BA” value (GHD children [1]; [8]) was 10.0 (2.2), the “Height velocity SD for CA” value (GHD children [1]; [8]) was 15.1 (5.1) and the Height Velocity (GHD children [1]; equivalent growth potential, after 6 months of GH ~42 μg/kg/day (N = 11)) was 8.8 (1.8) cm/year. For the same compound, the Height Velocity (GHD children [1]; low growth potential, after 6 months of GH ~42 μg/kg/day (N = 9)) was 14.0 (4.1) cm/year, the “growth (height velocity) response, GH compared with MK-0677, in words” value (GHD children [1]; overall patient group, GH 0.3 mg/kg/week sc vs MK-0677 0.8 mg/kg/day oral) was “superior to MK-0677” and the “growth response, GH compared with MK-0677, in words” value (GHD children [1]; patients with low GH secretion potential (Table 3B)) was “superior”. The “height velocity SD score for chronological age” value (GHD children [3]; rhGH 0.043 mg/kg/day daily sc, 20 children after 6 months of placebo) was 7.6±5.6 and the “increase in height velocity SD, GH compared with MK-0677” value (GHD children [3]; rhGH 0.043 mg/kg/day vs MK-0677 0.8 mg/kg/d) was “twice as high”.
